In assay [1] the test system is HepG2. Put plainly: Lipid-lowering effect in human HepG2 cells assessed as reduction in oleic acid-induced lipid accumulation at 1 uM after 6 hrs by oil-red O staining based spectrophotometry. It counts as functional, cell-based.
The test system of assay [2] is HepG2. The assay is described as follows: Inhibition of FAS gene expression in human HepG2 cells at 1 uM by quantitative real time PCR method. Type of assay: functional, cell-based.
Assay [3] relates to HepG2. The assay is described as follows: Effect on FAS protein expression in human HepG2 cells at 1 to 10 uM by Western blotting method. It counts as functional, cell-based.
In assay [4] the target is T1, Peroxisome proliferator-activated receptor alpha (Homo sapiens) (UniProt Q07869).
T1 sequence (whole entry): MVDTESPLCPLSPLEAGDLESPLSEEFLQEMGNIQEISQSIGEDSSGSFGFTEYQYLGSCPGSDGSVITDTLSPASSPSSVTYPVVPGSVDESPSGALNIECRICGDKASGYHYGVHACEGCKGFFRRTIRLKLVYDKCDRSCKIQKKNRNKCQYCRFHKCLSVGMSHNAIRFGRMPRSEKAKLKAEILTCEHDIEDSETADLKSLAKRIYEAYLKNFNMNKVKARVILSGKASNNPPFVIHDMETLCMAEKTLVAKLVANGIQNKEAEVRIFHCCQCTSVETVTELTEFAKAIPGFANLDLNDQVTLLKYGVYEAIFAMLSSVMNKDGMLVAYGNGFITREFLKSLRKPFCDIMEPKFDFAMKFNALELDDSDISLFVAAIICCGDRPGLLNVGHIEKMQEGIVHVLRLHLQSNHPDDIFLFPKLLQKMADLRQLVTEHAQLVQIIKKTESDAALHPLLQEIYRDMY
Put plainly: Activation of PPARalpha transactivation in human HepG2 cells assessed as increase in transcriptional activity at 0.1 to 10 uM by luciferase reporter gene assay. Type of assay: cell-based.

The test system of assay [5] is HepG2. The assay is described as follows: Increase in PDK4 gene expression in human HepG2 cells at 1 uM by quantitative real time PCR method. Type of assay: functional, cell-based.
Assay [6] concerns HepG2. The assay is described as follows: Lipid-lowering effect in human HepG2 cells assessed as reduction in oleic acid-induced total cholesterol accumulation at 10 uM in presence of 10 uM PPARalpha antagonist MK886 by oil-red O staining based spectrophotometry. Type of assay: functional, cell-based.
Assay [7] concerns HepG2. Put plainly: Lipid-lowering effect in human HepG2 cells assessed as reduction in oleic acid-induced triglyceride accumulation at 10 uM in presence of 10 uM PPARalpha antagonist MK886 by oil-red O staining based spectrophotometry. It counts as functional, cell-based.
The subject of assay [8] is HepG2. The assay is described as follows: Lipid-lowering effect in human HepG2 cells assessed as reduction in oleic acid-induced triglyceride accumulation at 1 and 10 uM after 24 hrs by oil-red O staining based spectrophotometry. Type of assay: functional, cell-based.
In assay [9] the test system is HepG2. Put plainly: Increase in PPARalpha gene expression in human HepG2 cells at 1 uM by quantitative real time PCR method. Type of assay: functional, cell-based.
The test system of assay [10] is HepG2. The assay is described as follows: Increase in PPARalpha protein expression in human HepG2 cells at 1 to 10 uM by Western blotting method. It counts as functional, cell-based.
The test system of assay [11] is HepG2. Put plainly: Increase in PGC-1alpha protein expression in human HepG2 cells at 1 to 10 uM by Western blotting method. Type of assay: functional, cell-based.
Assay [12] deals with HepG2. Put plainly: Inhibition of ACC gene expression in human HepG2 cells at 1 uM by quantitative real time PCR method. It counts as functional, cell-based.
The test system of assay [13] is HepG2. Put plainly: Increase in CPT1 protein expression in human HepG2 cells at 1 to 10 uM by Western blotting method. It counts as functional, cell-based.
Assay [14] has as its system HepG2. The assay is described as follows: Increase in ACOX1 gene expression in human HepG2 cells at 1 uM by quantitative real time PCR method. It counts as functional, cell-based.
Assay [15] has as its system HepG2. Put plainly: Increase in CYP7A1 gene expression in human HepG2 cells at 1 uM by quantitative real time PCR method. Type of assay: functional, cell-based.
Assay [16] has as its system HepG2. Put plainly: Increase in CPT1 gene expression in human HepG2 cells at 1 uM by quantitative real time PCR method. It counts as functional, cell-based.
In assay [17] the test system is HepG2. The assay is described as follows: Inhibition of HMGCR gene expression in human HepG2 cells at 1 uM by quantitative real time PCR method. Type of assay: functional, cell-based.
Assay [18] concerns HepG2. The assay is described as follows: Lipid-lowering effect in human HepG2 cells assessed as reduction in oleic acid-induced neutral lipid accumulation at 1 and 10 uM after 24 hrs by oil-red O staining based spectrophotometry. It counts as functional, cell-based.
Assay [19] has as its system HepG2. The assay is described as follows: Lipid-lowering effect in human HepG2 cells assessed as reduction in oleic acid-induced total cholesterol accumulation at 1 and 10 uM after 24 hrs by oil-red O staining based spectrophotometry. It counts as functional, cell-based.
For assay [20], the system named is HepG2. The assay is described as follows: Increase in MCD1 gene expression in human HepG2 cells at 1 uM by quantitative real time PCR method. Type of assay: functional, cell-based.
For assay [21], the system named is HepG2. Put plainly: Lipid-lowering effect in human HepG2 cells assessed as reduction in oleic acid-induced triglyceride accumulation at 10 uM after 24 hrs by oil-red O staining based spectrophotometry. Type of assay: functional, cell-based.
The test system of assay [22] is HepG2. Put plainly: Lipid-lowering effect in human HepG2 cells assessed as reduction in oleic acid-induced total cholesterol accumulation at 10 uM after 24 hrs by oil-red O staining based spectrophotometry. It counts as functional, cell-based.

Calls of active or inactive are those of the source. No cut-off for these calls is given here.

Take `CC(C)=CCC/C(C)=C/CC/C(C)=C/C[C@@]12O[C@@H]1[C@H](O)C(C)=CC2=O`: the inhibition entry in the assay with HepG2 [1] is “inactive”.
For `CC(C)=CCC/C(C)=C/CC/C(C)=C/CC1=CC(=O)C(C)=CC1=O`, the inhibition result with HepG2 [2], in the assay with HepG2 [6], in the assay with HepG2 [7], in the assay on HepG2 [12] and with HepG2 [17] was “inactive” in each case. In the assay on HepG2 [3], the outcome was inactive. Besides, the Activity entry in assay [4] is “Dose-dependent effect”. In addition, the outcome with HepG2 [5], in the assay with HepG2 [9], in the assay on HepG2 [10], in the assay on HepG2 [11], with HepG2 [13] and with HepG2 [14] was Active. The result with HepG2 [15], in the assay on HepG2 [16] and in the assay with HepG2 [20] was Active. Moreover, the inhibition entry with HepG2 [8], in the assay with HepG2 [18] and with HepG2 [19] was “Dose-dependent effect” each time. Besides, in the assay with HepG2 [1], the inhibition result is “Active”.
For `O=C(O)CCCCC[C@H](O)c1ccccc1CO`, the inhibition entry with HepG2 [1] is “Active”.
For `CC[C@H](C)C(=O)O[C@H]1C[C@@H](C)C=C2C=C[C@H](C)[C@H](CC[C@@H]3C[C@@H](O)CC(=O)O3)[C@H]21`, the inhibition result with HepG2 [21], in the assay on HepG2 [22] and with HepG2 [1] was “Active” each time.
Regarding `COC(=O)CC/C=C/c1ccccc1CO`, the inhibition result with HepG2 [1] was “inactive”.
`O=C(O)CC/C=C/c1ccccc1CO`: the inhibition entry in the assay on HepG2 [1] is “inactive”.
With `O=C(O)/C=C/C=C/c1ccccc1CO`, the inhibition entry in the assay on HepG2 [1] is “inactive”.
With `O=C(O)C[C@H](O)CCc1ccccc1CO`, the inhibition entry in the assay on HepG2 [1] is “inactive”.
Still for that read-out and setting: with `CC(C)=CCC/C(C)=C/CC/C(C)=C/Cc1cc(O)c(C)cc1O` the entry was “inactive”; with `O=C(O)CCCC(=O)c1ccccc1CO`, “inactive”; with `O=C(O)CCCCc1ccccc1CO`, “inactive”.

The values above are taken from ChEMBL document CHEMBL3352787, “Lipid-lowering effects of farnesylquinone and related analogues from the marine-derived Streptomyces nitrosporeus” (Bioorg Med Chem Lett, 2014).
